Non-standard residues stand in square brackets, D forms with d. Residues, ends and D or L forms follow the SMILES beside them. No end group written: not given here. pY = N[C@@H](Cc1ccc(OP(=O)(O)O)cc1)C(=O)O
These compounds were tested on intestinotrophic activity of rat GLP-2 (assay: GLP-2 antagonist assessment by co-administration into mice with GLP-2 (small bowel weight)). Details: CD1 female mice, antagonist to GLP-2 ratio 4:1 by weight (12.5 μg/2.5 μg rat GLP-2) s.c. twice a day, 10-14 days.
Assay type: in vivo
Procedure: The candidate peptide antagonist and rat GLP-2 were dissolved in PBS to give a final ratio of 25 μg antagonist/2.5 μg GLP-2 per 0.5 ml phosphate buffered saline solution (for a 10:1 ratio), or […] antagonist/2.5 μg GLP-2 per 0.5 ml phosphate buffered saline solution (for a 4:1 ratio), as indicated. The antagonist/GLP-2 mixture was administered to 6-8 week old CD1 female mice subcutaneously, with the amount of peptide injected being 25 μg antagonist/2.5 μg GLP-2 in 0.5 ml twice a day, or 12.5 μg antagonist/2.5 μg GLP-2 in 0.5 ml twice a day. After 10-14 days, peptide-injected and control (saline-injected) mice were sacrificed, and small bowel weights were determined.
With ratGLP-2(3-33) the “% Antagonism” value was 33%.

Same assay, conditions: CD1 female mice, antagonist to GLP-2 ratio 10:1 by weight (25 μg/2.5 μg rat GLP-2) s.c. twice a day, 10-14 days
In the case of ratGLP-2(2-33), the “% Antagonism” value is reported as 42%. In the case of ratGLP-2(4-33), the “% Antagonism” value is reported as 32%. For ratGLP-2(5-33), the “% Antagonism” value was 16%.

The compounds below were run against T1, human placental DPP-IV (Homo sapiens, UniProt P27487) (assay: not given). Details: not given.
T1 sequence (P27487 whole entry): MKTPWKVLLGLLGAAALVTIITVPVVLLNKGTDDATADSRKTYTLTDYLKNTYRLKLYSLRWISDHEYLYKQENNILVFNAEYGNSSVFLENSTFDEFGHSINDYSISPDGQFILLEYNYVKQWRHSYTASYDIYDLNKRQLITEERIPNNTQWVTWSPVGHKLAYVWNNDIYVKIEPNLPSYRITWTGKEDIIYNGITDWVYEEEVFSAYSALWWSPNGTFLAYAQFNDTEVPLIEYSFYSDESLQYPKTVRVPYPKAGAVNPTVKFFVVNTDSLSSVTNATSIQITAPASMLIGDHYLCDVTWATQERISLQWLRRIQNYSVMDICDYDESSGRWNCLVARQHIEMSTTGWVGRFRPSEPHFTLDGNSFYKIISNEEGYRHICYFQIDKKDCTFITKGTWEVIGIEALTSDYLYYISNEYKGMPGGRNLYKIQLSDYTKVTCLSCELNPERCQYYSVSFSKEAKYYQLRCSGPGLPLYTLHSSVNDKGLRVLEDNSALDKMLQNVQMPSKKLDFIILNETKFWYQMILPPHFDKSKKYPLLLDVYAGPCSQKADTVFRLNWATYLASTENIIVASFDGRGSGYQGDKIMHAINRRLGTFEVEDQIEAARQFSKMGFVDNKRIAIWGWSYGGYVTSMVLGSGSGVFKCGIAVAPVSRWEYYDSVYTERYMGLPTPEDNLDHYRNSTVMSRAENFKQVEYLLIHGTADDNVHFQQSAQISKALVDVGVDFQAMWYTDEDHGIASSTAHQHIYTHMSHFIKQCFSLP
For `CC[C@H](C)[C@H](NC(=O)[C@H](Cc1ccccc1)NC(=O)[C@H](CC(=O)O)NC(=O)[C@H](CCCNC(=N)N)NC(=O)[C@H](C)NC(=O)[C@H](C)NC(=O)[C@H](CC(C)C)NC(=O)[C@H](CC(N)=O)NC(=O)[C@H](CC(=O)O)NC(=O)[C@H](CC(C)C)NC(=O)[C@@H](NC(=O)[C@@H](NC(=O)[C@H](CC(N)=O)NC(=O)[C@H](CCSC)NC(=O)[C@H](CCC(=O)O)NC(=O)[C@H](CC(=O)O)NC(=O)[C@H](CO)NC(=O)[C@H](Cc1ccccc1)NC(=O)[C@H](CO)NC(=O)CNC(=O)[C@H](CC(=O)O)NC(=O)[C@H](Cc1ccc(OP(=O)(O)O)cc1)NC(=O)[C@@H](N)Cc1c[nH]cn1)[C@@H](C)O)[C@@H](C)CC)C(=O)N[C@@H](CC(N)=O)C(=O)N[C@@H](Cc1c[nH]c2ccccc12)C(=O)N[C@@H](CC(C)C)C(=O)N[C@H](C(=O)N[C@@H](CCC(N)=O)C(=O)N[C@H](C(=O)N[C@@H](CCCCN)C(=O)N[C@H](C(=O)N[C@H](C(=O)N[C@@H](CC(=O)O)C(=O)O)[C@@H](C)O)[C@@H](C)CC)[C@@H](C)O)[C@@H](C)CC` [[PO3-Tyr^2]GLP-2] (H-H[pY]DGSFSDEMNTILDNLAARDFINWLIQTKITD-OH; N-terminus and C-terminus assumed), the “cleavage products detected after DPP-IV incubation” value (“cleavage products detected” for short) was “No cleavage products were detected”. With “HCDGSFSDEMNTILDNLAARDFINWLIQTKITD [[Cys^2]GLP-2]” the “cleavage products detected” value was “No cleavage products were detected”. In the case of “HEDGSFSDEMNTILDNLAARDFINWLIQTKITD [[Glu^2]GLP-2]”, the “cleavage products detected” value is reported as “No cleavage products were detected”. “HGDGSFSDEMNTILANLAARDFINWLIQTKITD [[Gly^2, Ala^15]GLP-2]” was tested, and the “cleavage products detected” value was “No cleavage products were detected”. In the case of “HGDGSFSDEMNTILDNLAARDAINWLIQTKITD [[Gly^2, Ala^22]GLP-2]”, the “cleavage products detected” value is reported as “No cleavage products were detected”. With “HGDGSFSDEMNTILDNLAARDFINWLIQAKITD [[Gly^2, Ala^29]GLP-2]” the “cleavage products detected” value was “No cleavage products were detected”. In the case of “HGDGSFSDEMNTILDNLAARDFINWLIQTKIAD [[Gly^2, Ala^32]GLP-2]”, the “cleavage products detected” value is reported as “No cleavage products were detected”. With “HGDGSFSDEMNTILDNLAARDFINWLIQTKITA [[Gly^2, Ala^33]GLP-2]” the “cleavage products detected” value was “No cleavage products were detected”. “HLDGSFSDEMNTILDNLAARDFINWLIQTKITD [[Leu^2]GLP-2]” was tested, and the “cleavage products detected” value was “No cleavage products were detected”. In the case of “HRDGSFSDEMNTILDNLAARDFINWLIQTKITD [[Arg^2]GLP-2]”, the “cleavage products detected” value is reported as “No cleavage products were detected”. In the case of “HWDGSFSDEMNTILDNLAARDFINWLIQTKITD [[Trp^2]GLP-2]”, the “cleavage products detected” value is reported as “No cleavage products were detected”.

Each compound was assayed against T1, human placental DPP-IV (assay: Assay for resistance to dipeptidyl peptidase IV). Details: 24 hours at 37° C., RP-HPLC.
Procedure: To perform the assay, 2.5 microliters (μl) of a solution of human placental DPP-IV (Calbiochem, La Jolla, Calif., cat. # 317624) containing 0.125 milliunits (mU) of enzyme in 50% glycerol, mM Tris, pH 7.8, EDTA and 0.02% NaN3 was added to 50 μl of a solution of the test peptide prepared at a concentration of 0.2 mg/ml in PBS at pH 7.4. The mixture was incubated at 37° C. in a circulating water bath for 24 hours. The incubation was quenched by the addition of 50 μl of a solution of diprotin A prepared at a concentration of 4 mg/ml in PBS. Each peptide was tested in duplicate.
Each sample was analyzed by reverse-phase (RP) HPLC as follows: 90 μl of the quenched incubation mixture was injected onto a Rainin Dynamax 300 Å, C18, 5 micron, 4.6×250 millimeter column. The samples were eluted with 0.1% trifluoroacetic acid (TFA) in water modified with 0.1% acetonitrile using a linear gradient and a flow rate of 1 ml per minute. Sample components were detected at 214 nanometers (nm). The extent of cleavage was measured by relative integration of the peak corresponding to the cleavage product compared to that of the remaining undigested parent peptide.
In the case of [D-Ala^2]ratGLP-2, the “cleavage products detected” value is reported as “No cleavage products were detected”. In the case of [Gly^2]ratGLP-2, the “cleavage products detected” value is reported as “No cleavage products were detected”.
